Entries after “also recorded” stand apart in the source; their conditions may differ.
Tested on: luc+ bone marrow stromal cells migrating to lungs
Test: Live imaging of luc+ marrow cell migration to irradiated lungs
Assay type: in vivo, mouse
Details: MMS350 in drinking water
Description: C57BL/6NTac mice marrow chimeric luc+ mice were prepared by 9.25 Gy TBI, followed by an injection of 1×10^7 luc+ marrow cells 24 hours later. Subgroups of these chimeric mice were irradiated to 20 Gy to the pulmonary cavity. On day 75 following thoracic irradiation, 50% of the mice were placed on drinking water containing 100 mM MMS350. Mice in the non-chimeric group were injected intraperitoneally on day 100 after irradiation with 1×10^6 luc+ bone marrow stromal cells. Beginning 12 days after cell line injection (112 days after irradiation), the cell line injected mice were imaged at serial timepoints following injection of D-luciferin (Gold Biotechnology, St. Louis, Mo.) using a Xenogen IVIS 200 Imaging system and the bioluminescent signal for each mouse quantitated. As controls for thoracic irradiation, other C57BL/6NTac mice were irradiated to 20 Gy to the right hind limb and injected with luc+ bone marrow stromal cells in the same cell numbers and at the same time points used for the thoracic irradiation experiment. Animals were imaged for luc+ cell migration into irradiated hind limbs using methods identical to that used for pulmonary irradiation groups. The bioluminescence of the mice treated with MMS350 in the drinking water was compared to mice on regular drinking water using a Student T test. […]

CC1(C[S+]([O-])CC2(C)COC2)COC1 [Compound 3, 3,3′-Sulfinylbis(methylene)bis(3-methyloxetane)]
pulmonary migration of luc+ bone marrow stromal cells (20 Gy thoracic irradiation, luc+ stromal cell line injected intraperitoneally): significant decrease in migration into the lungs of luc+ cells; also recorded: significant decrease in pulmonary migration of luc+ bone marrow stromal cells | migration of luc+ bone marrow cells into the lungs (luc+ marrow chimeric mice, 18 or 20 Gy thoracic irradiation, listed as MMS350): significantly reduces migration of bone marrow cells into the lungs; also recorded: reduction of luc+ areas in the thoracic cavity
